Converted amounts (≈) assume the structure as drawn. Numbered stars: 1 amine (or outer) side, 2 acyl side, 3 side chain; on linkers, the order of the positions; unused ones are H or OH. Bridge positions count the residues as written; N and C are the ends. Square brackets hold non-standard residues; d marks the D form. Peptide text beside a SMILES is read from it. * marks the point of attachment. Piz(1,6-dehydro) = O=C(O)[C@@H]1CCC=NN1; X2 = O=C([C@@H]1CCCNN1[*:1])[*:2]; X1 = CCCCC[C@H](CC(=O)O)C(=O)*
Columns and labels:
E. coli PDF [1] = target: T1, E. coli PDF (Escherichia coli, UniProt P0A6K3); assay: Michaelis-Menten kinetics of E. coli PDF with fML-pNA; type: biochemical; settings: substrate fML-pNA, 405 nm, room temperature; 1% DMSO
R. fascians D188 WT = settings: 72 h
E. coli PDF [2] = target: T1, E. coli PDF; assay: In vitro PDF inhibition assay, E. coli PDF, fML-pNA colorimetric coupled; type: biochemical; settings: in vitro inhibition of E. coli PDF (10 nM); fML-pNA 20 µM; Aeromonas aminopeptidase 0.8 U/mL; lydiamycin A 0-50 µM; HEPES buffer pH 7.5, 1% DMSO; 405 nm, room temperature; sigmoidal fit of initial velocities; n = 3 independent experiments, SD
mycobacteria = settings: cited from earlier work
R. fascians D188-5 [3] = system: R. fascians D188-5
R. fascians D188-5 [4] = assay: In planta competition assay, WT or Δlyd against plasmid-free D188-5; settings: N. benthamiana seedlings, 1:1 mixtures, 1 wk; WT vs Δlyd relative fitness P = 0.0068, two-tailed t test

T1 sequence (P0A6K3 whole entry): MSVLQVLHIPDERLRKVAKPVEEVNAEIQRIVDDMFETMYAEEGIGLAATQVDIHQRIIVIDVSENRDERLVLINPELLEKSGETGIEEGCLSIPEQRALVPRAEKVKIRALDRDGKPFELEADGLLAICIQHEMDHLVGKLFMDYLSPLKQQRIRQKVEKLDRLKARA

Compound	Km (E. coli PDF [1])	kcat (E. coli PDF [1])	MIC (R. fascians D188 WT)	IC50 (E. coli PDF [2])	inhibition of mycobacteria (mycobacteria)	MIC (R. fascians D188-5 [3]; 72 h)	sensitivity of R. fascians D188-5 relative to R. fascians WT (R. fascians D188-5 [3]; D188-5 more sensitive than WT, from the MICs)	role of lydiamycin A production in leafy gall disease development (Nicotiana plants; WT versus Δlyd, plant or leafy gall mass at 4 wk)	phytotoxic activity (Nicotiana plants; concluded from plant/gall mass, seedling root length and excised leaf assays, R. fascians WT versus Δlyd)	fitness effect of lydiamycin production in competition with D188-5 (R. fascians D188-5 [4])
formyl-methionyl-leucyl-p-nitroaniline [fML-pNA]	27 µM	7 s⁻¹								
CCCCC[C@H](CC(=O)O)C(=O)N1N=CCC[C@H]1C(=O)N[C@H]1COC(=O)[C@@H]2CCCNN2C(=O)[C@H](C)NC(=O)[C@@H](CC(C)C)NC1=O [lydiamycin A] (X1-[Piz(1,6-dehydro)]S[dL]A[X2]; ester 2-C)			> 600 mg/L	6 µM	previously shown to display antimycobacterial activity	10 mg/L (≈ 15.1 µM)	at least 60 times	not required for leafy gall disease development	does not have phytotoxic activity	significant fitness benefit

Reference: article PMC12130866, “Identification of the lydiamycin biosynthetic gene cluster in a plant pathogen guides structural revision and identification of molecular target” (Proceedings of the National Academy of Sciences of the …, 2025)
